Values of other authors, collected in patent US20080286202A1, “Method of Diagnosing Prodromal Forms of Diseases Associated With Amyloid Deposition” (priority 2004, published 2008).

Conditions: in vivo

COc1ccccc1N1CCN(CCN(c2ccccn2)[11C](=O)C2CCCCC2)CC1 [[^11C]WAY-100635]
f1 (free level in plasma): 0.06
